Here are results for two compounds from patent US6433151B1, “Erythromycin derivatives, a process for their preparation and their use as medicaments” (Aventis Pharma S.A., priority 1998, dated 2002).

Some results are limits rather than exact numbers.

Assay in all cases: Method of dilutions in a liquid medium (MIC)
Assay type in all cases: cell-based

In assay [1] the test system is E. faecalis 02D2DU15c. Particulars: ery R, reading after 24 hours. On the procedure: (§1) Method of Dilutions in a Liquid Medium
(§2) A series of tubes in which the same amount of sterile nutrient medium is distributed is prepared. Increasing amounts of the product to be studied are distributed in each tube, and each tube is then seeded with a strain of bacteria.
(§3) After incubation for twenty-four hours in an oven at 37° C., the inhibition of growth is evaluated by transillumination, from which the minimum inhibitory concentrations (MIC), expressed in micrograms/cm^3, can be determined.
(§4) The following results were obtained with the product from example 1 and from example 2 (reading taken after 24 hours).

Assay [2] concerns E. faecalis 02D2UC1. The settings on record: E. faecalis 02D2UC1, ery S; reading after 24 hours. On the procedure:
as §1, §2, §3, §4

In assay [3] the test system is E. faecium 02D3HT1. The settings on record: E. faecium 02D3HT1, Ery S; reading after 24 hours. As for the experimental part: as §1, §2, §3, §4
For assay [4], the system named is S. agalactiae 02B1HT1. Particulars: S. agalactiae 02B1HT1, ery S; reading after 24 hours. As for the experimental part:
as §1, §2, §3, §4

Assay [5] relates to S. agalactiae 02B1SJ1c. Particulars: ery R, reading after 24 hours. As for the experimental part: as §1, §2, §3, §4
For assay [6], the system named is S. aureus 011GO25I. Particulars: oxa S ery R, reading after 24 hours. On the procedure: as §1, §2, §3, §4
In assay [7] the test system is S. aureus 011UC4. Particulars: reading after 24 hours. As for the experimental part:
as §1, §2, §3, §4

Assay [8] concerns S. epidermidis 012GO11I. Particulars: oxa S ery R, reading after 24 hours. As for the experimental part: as §1, §2, §3, §4
The subject of assay [9] is S. mitis 02MitCB1. Particulars: S. mitis 02MitCB1, Ery S; reading after 24 hours. On the procedure: as §1, §2, §3, §4
The test system of assay [10] is S. mitis 02MitGR16I. The settings on record: ery R, reading after 24 hours. As for the experimental part:
as §1, §2, §3, §4

In assay [11] the test system is S. pneumoniae 030CR18c. Particulars: ery R, reading after 24 hours. As for the experimental part: as §1, §2, §3, §4
For assay [12], the system named is S. pneumoniae 030GR20. The settings on record: S. pneumoniae 030GR20, ery S; reading after 24 hours. On the procedure:
as §1, §2, §3, §4

Assay [13] deals with S. pneumoniae 030PW23c. The settings on record: ery R, reading after 24 hours. As for the experimental part:
as §1, §2, §3, §4

Assay [14] concerns S. pneumoniae 030R01I. The settings on record: ery R, reading after 24 hours. As for the experimental part:
as §1, §2, §3, §4

Assay [15] deals with S. pneumoniae 030SJ1c. The settings on record: ery R, reading after 24 hours. As for the experimental part:
as §1, §2, §3, §4

For assay [16], the system named is S. pneumoniae 030SJ51. Particulars: S. pneumoniae 030SJ51, ery R; reading after 24 hours. As for the experimental part: as §1, §2, §3, §4
The subject of assay [17] is S. pneumoniae 032UC1. The settings on record: S. pneumoniae 032UC1, ery S; reading after 24 hours. On the procedure: as §1, §2, §3, §4
Assay [18] concerns S. pyogenes 02A1UC1. The settings on record: S. pyogenes 02A1UC1, ery S; reading after 24 hours. On the procedure:
as §1, §2, §3, §4

The test system of assay [19] is S. sanguis 02SgGr10I. Particulars: ery R, reading after 24 hours. As for the experimental part:
as §1, §2, §3, §4

Assay [20] has as its system Streptococcus gr. G 02GOGR5. Particulars: Streptococcus gr. G 02GOGR5, Ery S; reading after 24 hours. On the procedure: as §1, §2, §3, §4
Setting [21] is: S. aureus 011UC4 + serum 50%, ery S.

As to `CCC1OC(=O)C(C)C(=O)C(C)C(OC2OC(C)CC(NC)C2O)C(C)(OC)CC(C)C(=O)C(C)C2N(NCCCc3ccnc4ccccc34)C(=O)OC12C` [Ex. 2, N-Demethyl-11,12-dideoxy-3-de((2,6-dideoxy-3-C-methyl-3-O-methyl-alpha-L-ribohexopyranosyl)oxy)-6-O-methyl-3-oxo-12,11-(oxycarbonyl(2-(3-(4-quinolinyl)-propyl)-hydrazono))-erythromycin], the “minimum inhibitory concentrations (MIC)” value is listed as greater than 20 micrograms/cm^3 in assay [1]; 0.040 micrograms/cm^3 in [2]; 0.040 micrograms/cm^3 in assay [3]; 0.020 micrograms/cm^3 in [4]; 0.150 micrograms/cm^3 in [5]; 0.600 micrograms/cm^3 in [6]. Further, the “minimum inhibitory concentrations (MIC)” value in assay [7] (setting [21]) was 0.150 micrograms/cm^3; in assay [7] (S. aureus 011UC4, ery S) it was 0.080 micrograms/cm^3; in assay [8], 0.300 micrograms/cm^3; in [9] it was “<=0.01 micrograms/cm^3”; in [10], 0.080 micrograms/cm^3; in assay [11], 2.500 micrograms/cm^3. Moreover, the “minimum inhibitory concentrations (MIC)” value in [12] is listed as “<=0.01 micrograms/cm^3”; in assay [13] it was 0.080 micrograms/cm^3; in assay [14], 0.300 micrograms/cm^3; in [15] it was 0.150 micrograms/cm^3; in [16], 0.080 micrograms/cm^3; in assay [17] it was “<=0.01 micrograms/cm^3”. For the same compound, the “minimum inhibitory concentrations (MIC)” value in [18] is reported as 0.040 micrograms/cm^3; in assay [19] it was 0.150 micrograms/cm^3; in assay [20], 0.040 micrograms/cm^3.
For `CCC1OC(=O)C(C)C(=O)C(C)C(OC2OC(C)CC(NC)C2O)C(C)(OC)CC(C)C(=O)C(C)C2N(CCCCn3cnc(-c4cccnc4)c3)C(=O)OC12C` [Ex. 1, N-Demethyl-11,12-dideoxy-3-de[(2,6-dideoxy-3-C-methyl-3-O-methyl-alpha-L-ribohexopyranosyl)-oxy]-6-O-methyl-3-oxo-12,11-[oxycarbonyl[[4-[4-(3-pyridinyl)-1H-imidazol-1-yl]butyl]imino]]-erythromycin], the “minimum inhibitory concentrations (MIC)” value in [1] is reported as greater than 40 micrograms/cm^3; in assay [2], 0.080 micrograms/cm^3; in [3], 0.080 micrograms/cm^3; in [4] it was “<=0.02 micrograms/cm^3”; in assay [5], 0.600 micrograms/cm^3; in assay [6], 5.000 micrograms/cm^3. In addition, the “minimum inhibitory concentrations (MIC)” value is on record as 0.040 micrograms/cm^3 in assay [7] (setting [21]); 0.300 micrograms/cm^3 in assay [7] (S. aureus 011UC4, ery S); 0.150 micrograms/cm^3 in assay [8]; 0.080 micrograms/cm^3 in assay [9]; 0.080 micrograms/cm^3 in [10]; 10.000 micrograms/cm^3 in assay [11]. Moreover, the “minimum inhibitory concentrations (MIC)” value in assay [12] is given as “<=0.02 micrograms/cm^3”; in [13], 0.150 micrograms/cm^3; in assay [14], 0.150 micrograms/cm^3; in [15], 0.080 micrograms/cm^3; in assay [16], 0.080 micrograms/cm^3; in assay [17], “<=0.02 micrograms/cm^3”. The “minimum inhibitory concentrations (MIC)” value in assay [18] worked out at 0.800 micrograms/cm^3; in assay [19] it was 0.150 micrograms/cm^3; in [20] it was 0.080 micrograms/cm^3.
